PMC9516332 (Frontiers in Oncology, 2022)
Like-named read-outs stand apart in the source and are kept apart here.

Legend:
Assay in all cases: Kinase panel profiling at 1 µmol/L (MSA or IMAP), percentage inhibition
Type in all cases: biochemical
[1] = molecular target: panel of 255 wild-type kinases (Homo sapiens, UniProt Q86Z02); conditions: read-out: %-inhibition at 1 µmol/L, HIPK1
[2] = molecular target: T1, panel of 255 wild-type kinases (Homo sapiens, UniProt Q9H093); conditions: read-out: %-inhibition, NuaK2
T1 sequence (Q9H093 1-628): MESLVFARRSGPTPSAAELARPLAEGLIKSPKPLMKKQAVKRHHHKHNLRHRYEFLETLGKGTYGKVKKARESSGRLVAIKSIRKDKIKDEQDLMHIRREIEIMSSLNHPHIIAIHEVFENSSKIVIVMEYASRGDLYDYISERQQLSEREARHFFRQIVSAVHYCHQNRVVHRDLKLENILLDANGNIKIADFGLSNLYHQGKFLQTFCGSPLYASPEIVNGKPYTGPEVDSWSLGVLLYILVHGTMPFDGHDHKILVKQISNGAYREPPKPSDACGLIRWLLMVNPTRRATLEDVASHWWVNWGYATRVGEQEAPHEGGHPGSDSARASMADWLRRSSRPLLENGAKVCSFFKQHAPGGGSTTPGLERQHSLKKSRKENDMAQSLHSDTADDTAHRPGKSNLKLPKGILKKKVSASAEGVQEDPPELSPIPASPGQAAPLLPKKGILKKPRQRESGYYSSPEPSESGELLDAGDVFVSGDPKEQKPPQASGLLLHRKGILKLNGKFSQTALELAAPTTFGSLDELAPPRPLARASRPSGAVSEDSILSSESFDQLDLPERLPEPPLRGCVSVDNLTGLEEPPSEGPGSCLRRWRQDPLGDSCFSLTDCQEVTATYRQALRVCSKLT

[3] = molecular target: panel of 255 wild-type kinases (Homo sapiens, UniProt Q13557); conditions: read-out: %-inhibition CaMK2δ
[4] = molecular target: T2, panel of 255 wild-type kinases (Homo sapiens, UniProt Q9NRA0); conditions: read-out: %-inhibition at 1 µmol/L, SPHK2
T2 sequence (Q9NRA0 1-654): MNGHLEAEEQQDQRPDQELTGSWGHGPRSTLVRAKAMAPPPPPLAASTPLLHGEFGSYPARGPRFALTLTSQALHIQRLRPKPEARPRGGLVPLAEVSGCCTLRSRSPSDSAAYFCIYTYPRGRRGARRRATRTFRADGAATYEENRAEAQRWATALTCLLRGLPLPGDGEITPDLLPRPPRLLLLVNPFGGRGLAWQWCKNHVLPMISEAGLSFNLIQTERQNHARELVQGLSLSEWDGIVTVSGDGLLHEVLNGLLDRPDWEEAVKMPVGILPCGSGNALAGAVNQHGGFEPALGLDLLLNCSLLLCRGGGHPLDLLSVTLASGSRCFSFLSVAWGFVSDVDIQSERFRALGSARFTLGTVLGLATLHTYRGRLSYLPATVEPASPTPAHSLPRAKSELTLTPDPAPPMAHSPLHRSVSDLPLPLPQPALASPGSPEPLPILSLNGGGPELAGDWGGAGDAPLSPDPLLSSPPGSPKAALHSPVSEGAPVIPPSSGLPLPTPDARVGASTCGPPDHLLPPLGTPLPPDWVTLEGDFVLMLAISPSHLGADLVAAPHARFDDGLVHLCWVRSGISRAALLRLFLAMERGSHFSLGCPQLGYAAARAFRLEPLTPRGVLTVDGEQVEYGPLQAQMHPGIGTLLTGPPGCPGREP

[5] = molecular target: panel of 255 wild-type kinases (Homo sapiens, UniProt Q5VT25); conditions: read-out: %-inhibition, MRCKα
[6] = molecular target: T3, panel of 255 wild-type kinases (Homo sapiens, UniProt Q9UF33); conditions: read-out: %-inhibition at 1 µmol/L, EPHA6
T3 sequence (Q9UF33 23-1036): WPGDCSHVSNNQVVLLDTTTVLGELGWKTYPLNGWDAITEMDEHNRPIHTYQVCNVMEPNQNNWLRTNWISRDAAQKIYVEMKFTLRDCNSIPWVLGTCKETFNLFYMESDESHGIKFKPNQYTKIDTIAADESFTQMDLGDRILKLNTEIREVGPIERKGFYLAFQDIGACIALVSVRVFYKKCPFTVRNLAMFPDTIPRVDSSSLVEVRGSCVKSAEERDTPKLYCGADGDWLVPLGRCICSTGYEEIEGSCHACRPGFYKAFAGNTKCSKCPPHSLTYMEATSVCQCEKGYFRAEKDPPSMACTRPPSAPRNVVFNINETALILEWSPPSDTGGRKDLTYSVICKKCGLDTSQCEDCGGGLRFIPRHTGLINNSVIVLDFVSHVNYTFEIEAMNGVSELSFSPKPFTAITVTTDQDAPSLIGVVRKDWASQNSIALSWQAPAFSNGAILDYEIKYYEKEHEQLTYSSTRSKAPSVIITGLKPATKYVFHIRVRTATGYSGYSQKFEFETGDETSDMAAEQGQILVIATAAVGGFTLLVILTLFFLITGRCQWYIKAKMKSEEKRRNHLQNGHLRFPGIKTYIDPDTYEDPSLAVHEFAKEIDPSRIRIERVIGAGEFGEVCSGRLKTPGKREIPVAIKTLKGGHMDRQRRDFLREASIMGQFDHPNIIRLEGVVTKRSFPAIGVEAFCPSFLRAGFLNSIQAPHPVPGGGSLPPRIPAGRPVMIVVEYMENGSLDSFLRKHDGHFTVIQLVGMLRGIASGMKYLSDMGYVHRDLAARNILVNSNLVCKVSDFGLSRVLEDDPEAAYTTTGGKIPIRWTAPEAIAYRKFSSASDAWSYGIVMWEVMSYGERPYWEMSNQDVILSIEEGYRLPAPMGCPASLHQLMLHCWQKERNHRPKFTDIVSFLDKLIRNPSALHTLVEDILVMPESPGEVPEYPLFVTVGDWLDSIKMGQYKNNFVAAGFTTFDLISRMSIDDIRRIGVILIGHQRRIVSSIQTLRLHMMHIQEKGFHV

[7] = kinase HIPK1, 1 µmol/L single concentration
[8] = NuaK2, 1 µmol/L single concentration
[9] = CaMK2δ kinase assay, 1 µmol/L single concentration
[10] = kinase SPHK2, 1 µmol/L single concentration
[11] = MRCKα, 1 µmol/L single concentration
[12] = kinase EPHA6, 1 µmol/L single concentration

SMILES | inhibition at 1 µM [1, 7] | inhibition at 1 µM [2, 8] | inhibition at 1 µM [3, 9] | inhibition at 1 µM [4, 10] | inhibition at 1 µM [5, 11] | inhibition at 1 µM [6, 12] | inhibition at 1 µM [1] | inhibition at 1 µM [2] | inhibition at 1 µM [3] | inhibition at 1 µM [4] | inhibition at 1 µM [5] | inhibition at 1 µM [6]
Cc1nc(NC(=O)N2CCC[C@H]2C(N)=O)sc1-c1ccnc(C(C)(C)C(F)(F)F)c1 [alpelisib] | 9% | 6% | 0.814% | 6.5% | -2% | 5.35% | – | – | – | – | – | –
Cn1cc(-c2cc3c(N4CCN(c5ncc([C@@](C)(N)c6ccc(F)cc6)cn5)CC4)ncnn3c2)cn1 [avapritinib] | 1.58% | 68% | -2.56% | 0.914% | 4% | 7% | – | – | – | – | – | –
Cn1cnc2c(F)c(Nc3ccc(Br)cc3F)c(C(=O)NOCCO)cc21 [binimetinib] | 0.44% | 0.626% | -4% | -7.55% | -5.53% | 2.34% | – | – | – | – | – | –
CNC(=O)c1ccc(-c2cnc3ncc(Cc4ccc5ncccc5c4)n3n2)cc1F [capmatinib] | – | – | – | – | – | – | -2.58% | -1% | -1.07% | -2% | 0.535% | -2%
COc1cc2ncnc(Nc3ccc(F)c(Cl)c3)c2cc1NC(=O)/C=C/CN1CCCCC1 [dacomitinib] | 3.42% | 2% | 9% | 7.54% | 4.59% | 98% | – | – | – | – | – | –
C[C@H](Nc1ncnc2nc[nH]c12)c1cc2cccc(Cl)c2c(=O)n1-c1ccccc1 [duvelisib] | 0.739% | 3.49% | 4% | 11% | -3.44% | 5.71% | – | – | – | – | – | –
COC(=O)N[C@@H](C)CNc1nccc(-c2cn(C(C)C)nc2-c2cc(Cl)cc(NS(C)(=O)=O)c2F)n1 [encorafenib] | 5.6% | 3.35% | -2.79% | -12% | 0.0684% | 17% | – | – | – | – | – | –
CN1CCN(c2ccc(C(=O)Nc3n[nH]c4ccc(Cc5cc(F)cc(F)c5)cc34)c(NC3CCOCC3)c2)CC1 [entrectinib] | 11% | 95% | 28% | 20% | -3.42% | 44% | – | – | – | – | – | –
CCc1nc(C(N)=O)c(Nc2ccc(N3CCC(N4CCN(C)CC4)CC3)c(OC)c2)nc1NC1CCOCC1 [gilteritinib] | 71% | 73% | 84% | 9% | 12% | 94% | – | – | – | – | – | –
CCN1CCN(c2ccc(Nc3cc(N(C)C(=O)Nc4c(Cl)c(OC)cc(OC)c4Cl)ncn3)cc2)CC1 [infigratinib] | -4.25% | 9% | -1.48% | 2% | 0.933% | 28% | – | – | – | – | – | –
O=C(Nc1cnn2ccc(N3CCC[C@@H]3c3cc(F)ccc3F)nc12)N1CC[C@H](O)C1 [larotrectinib] | -3.73% | 0.385% | 6% | -1.56% | 0.38% | -0.585% | – | – | – | – | – | –
C[C@H]1Oc2cc(cnc2N)-c2c(nn(C)c2C#N)CN(C)C(=O)c2ccc(F)cc21 [lorlatinib] | -1.71% | 30% | 36% | 10% | -6% | 76% | – | – | – | – | – | –
CCN1C(=O)N(c2c(F)c(OC)cc(OC)c2F)Cc2cnc3[nH]c(CN4CCOCC4)cc3c21 [pemigatinib] | 1.47% | 1.46% | 11% | -5.31% | -3.23% | -3% | – | – | – | – | – | –
FC(F)(F)c1ccc(CNc2ccc(Cc3c[nH]c4ncc(Cl)cc34)cn2)cn1 [pexidartinib] | 4.72% | 5% | 5.41% | 7% | 0.771% | 18% | – | – | – | – | – | –
CO[C@]1(C(=O)N[C@@H](C)c2ccc(-n3cc(F)cn3)nc2)CC[C@H](c2nc(C)cc(Nc3cc(C)[nH]n3)n2)CC1 [pralsetinib] | 13% | 75% | -1% | -2.48% | 1.82% | 87% | – | – | – | – | – | –
CCn1c(=O)c(-c2cc(NC(=O)Nc3ccccc3)c(F)cc2Br)cc2cnc(NC)cc21 [ripretinib] | -5.27% | 1.36% | 0.353% | -10% | -1.14% | 99% | – | – | – | – | – | –
COc1ccc(CN2C3CC2CN(c2ccc(-c4cc(OCC(C)(C)O)cn5ncc(C#N)c45)cn2)C3)cn1 [selpercatinib] | -0.334% | 4% | 1.36% | -3.75% | -2.65% | 98% | – | – | – | – | – | –
Cn1cnc2c(F)c(Nc3ccc(Br)cc3Cl)c(C(=O)NOCCO)cc21 [selumetinib] | 0.0183% | 6% | -3% | -4% | 2.24% | 1% | – | – | – | – | – | –
Cc1cc(Nc2ncnc3ccc(NC4=NC(C)(C)CO4)cc23)ccc1Oc1ccn2ncnc2c1 [tucatinib] | 11% | 6.61% | -3% | 0.368% | 0.364% | 2.19% | – | – | – | – | – | –
